Data from EP4778933A1 (Chengdu Hyperway Pharmaceuticals Co., Ltd., priority 2023, dated 2025).
Read-outs that look alike come from different tables or passages of the source.

How the values were obtained:
[1] = In vivo pharmacokinetic test in mice; conditions: female BALB/c mice, oral, single dose 30 mg/kg, plasma
Description: Each test compound was administered orally once to female BALB/c mice for pharmacokinetic study. The test compounds were prepared on the day of administration. The oral administration solvent: 50 mM sodium citrate (pH 5.0) + 10% captisol. The oral administration was conducted in a dose of 30 mg/kg. The animals were fasted for 10-14 h before oral administration, and the feeding was resumed 4 h after administration. Pharmacokinetic samples were collected through the orbit. The collection time points were: 15 min, 30 min, 1 h, 2 h, 4 h, 6 h, 8 h and 24 h after administration. Three whole blood samples were collected at each time point, with a collection volume of about 0.2 mL, and anticoagulated with sodium heparin. After blood samples were collected, they were immediately placed on ice and centrifuged within 1 h to isolate plasma (centrifugation conditions: 8000 rpm, 1 min, 2-8°C). The collected plasma was stored in a -20°C refrigerator before analysis. The concentrations of compounds in the plasma samples were determined using an LC-MS/MS analysis method.

[2] = test system: KRAS G12C-mediated ERK phosphorylation; assay: Inhibition of KRAS G12C-mediated ERK phosphorylation in NCI H358 cells; type: cell-based; conditions: Homo sapiens, 3 h incubation, read-out: Inhibitory activity on ERK phosphorylation (IC50) NCI H358-G12C
Description: (§1) Day 1: AGS cells, SW480 cells, NCI H358 cells, HCT116 cells, and KP2 cells were seeded into 384-well cell culture plates and cultured overnight in a 37°C, 5% CO2 incubator.
(§2) Day 2: The compounds were added to the plates using Echo550 and incubated for 3 h in a 37°C, 5% CO2 incubator. Then, cells fixed with paraformaldehyde, permeated with methanol and blocked with a blocking solution were added. Finally, a mixed solution of primary antibodies (rabbit anti pERK, mouse anti GAPDH) was added, and the mixture was incubated overnight at 4°C.
(§3) Day 3: The mixed solution of primary antibodies was discarded, and a mixed solution of secondary antibodies (goat anti rabbit 800 CW, goat anti mouse 680 RD) was added. The resulting mixture was incubated at room temperature in the dark. Finally, the cell culture plate was washed with PBST, and then inverted for 1 minute of centrifugation. The fluorescence signal values were read with Odyssey CLx.
(§4) ERK phosphorylation was calculated according to the following formula: [formula] • Negative control: DMSO • Positive control: 10 µM Reference • IC50 value was fitted and calculated by XLFit 5.0 using the parametric formula. • Y = Bottom+(Top-Bottom)/(1+10^((LogIC50-X)*HillSlope)) • X: log value of compound concentration. • Y: average value of relative expression of p-ERK between replicate wells.

[3] = test system: KRAS G12D-mediated ERK phosphorylation; assay: Inhibition of KRAS G12D-mediated ERK phosphorylation in AGS cells (in-cell pERK/GAPDH immunofluorescence); type: cell-based; conditions: AGS cells, 3 h incubation, read-out: Inhibitory activity on ERK phosphorylation (IC50) AGS-G12D
In short: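 AGS, SW480, NCI H358 and KP2 cells were seeded overnight, then treated with compounds for 3 h at 37°C. After fixation, permeabilization and blocking, pERK and GAPDH were immunostained and read by two-colour infrared fluorescence. The pERK/GAPDH ratio was normalized to DMSO and 10 µM reference controls, and IC50 was fitted with a four-parameter logistic model.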

[4] = test system: KRAS G13D-mediated ERK phosphorylation; assay: Inhibition of KRAS G13D-mediated ERK phosphorylation in HCT116 cells; type: cell-based; conditions: Homo sapiens, HCT-116, 3 h incubation, read-out: Inhibitory activity on ERK phosphorylation (IC50) HCT116-G13D
Description: as §1, §2, §3, §4

[5] = test system: KRAS G12R-mediated ERK phosphorylation; assay: Inhibition of KRAS G12R-mediated ERK phosphorylation in KP2 cells; type: cell-based; conditions: 3 h incubation, read-out: Inhibitory activity on ERK phosphorylation (IC50) KP2-G12R
Description: as §1, §2, §3, §4

[6] = test system: KRAS G12V-mediated ERK phosphorylation; assay: Inhibition of KRAS G12V-mediated ERK phosphorylation in SW480 cells; type: cell-based; conditions: 3 h incubation, read-out: Inhibitory activity on ERK phosphorylation (IC50) SW480-G12V
Description: as §1, §2, §3, §4

CC1(O)COCCN(c2nc(OCC34CCCN3C(c3cc(F)c(F)c(F)c3)CC4)nc3c(F)c(-c4cccc5sc(N)c(C#N)c45)c(Br)cc23)C1 (stereo not shown) [Example 23, 2-amino-4-[6-bromo-8-fluoro-4-(6-hydroxy-6-methyl-1,4-oxazepan-4-yl)-2-({[3-(3,4,5-trifluoropheny 1)-2,3,5,6,7,7a-hexahydro-1H-pyrrolizin-7a-yl]methyl}oxy)quinazolin-7-yl]benzo[b]thiophene-3-carb onitrile]
AUC ([1]; mouse, read-out: AUC): 9230 ng·h/mL
Cmax ([1]; mouse, read-out: Cmax): 3620 ng/mL
IC50 [2]: 4.9 nM
IC50 ([3]; Homo sapiens, AGS, 3 h): 4.2 nM
IC50 [4]: 94 nM
IC50 [5]: 663 nM

CC1(O)COCCN(c2nc(OCC34CCCN3C(c3cc(F)c(F)c(F)c3)CC4)nc3c(F)c(-c4ccc(F)c5sc(N)c(C#N)c45)c(Cl)cc23)C1 (single isomer, unassigned) [Example 12, 2-amino-4-[6-chloro-8-fluoro-4-(6-hydroxy-6-methyl-1,4-oxazepan-4-yl)-2-({[3-(3,4,5-trifluorophenyl)-2,3,5,6,7,7a-hexahydro-1H-pyrrolizin-7a-yl]methyl}oxy)quinazolin-7-yl]-7-fluorobenzo[b]thiophene-3-carbonitrile]
AUC ([1]; 30 mg/kg): 37427 ng·h/mL
Cmax ([1]; 30 mg/kg): 5544 ng/mL
IC50 [2]: 3.1 nM
IC50 [3]: 3.3 nM
IC50 [4]: 63 nM
IC50 [5]: 148 nM
IC50 [6]: 2.4 nM
